Source: patent US11324725B2, “Compositions and methods for the inhibition of pruritus” (The United States of America, as represented by the …, priority 2017, dated 2022)
Entries after “also recorded” stand apart in the source; their conditions may differ. Where a SMILES comes first, the peptide text is derived from it. Bridges are numbered along the chain shown (N, C = ends). [ ]: non-standard residue; d: D form. dTic = O=C(O)[C@H]1Cc2ccccc2CN1; Cha = N[C@@H](CC1CCCCC1)C(=O)O

What was measured:
[1] = biological target: T1, hNpr1 (Homo sapiens, UniProt P16066); experiment: GloSensor assay in 96-well format, HEK-hNpr1-cGMP-sensor cells; format: cell-based; details: 5 μM antagonist, increasing hNppa; GloSensor and membrane cyclase assays (FIGS. 5B-C)
T1 sequence (P16066 33-1061): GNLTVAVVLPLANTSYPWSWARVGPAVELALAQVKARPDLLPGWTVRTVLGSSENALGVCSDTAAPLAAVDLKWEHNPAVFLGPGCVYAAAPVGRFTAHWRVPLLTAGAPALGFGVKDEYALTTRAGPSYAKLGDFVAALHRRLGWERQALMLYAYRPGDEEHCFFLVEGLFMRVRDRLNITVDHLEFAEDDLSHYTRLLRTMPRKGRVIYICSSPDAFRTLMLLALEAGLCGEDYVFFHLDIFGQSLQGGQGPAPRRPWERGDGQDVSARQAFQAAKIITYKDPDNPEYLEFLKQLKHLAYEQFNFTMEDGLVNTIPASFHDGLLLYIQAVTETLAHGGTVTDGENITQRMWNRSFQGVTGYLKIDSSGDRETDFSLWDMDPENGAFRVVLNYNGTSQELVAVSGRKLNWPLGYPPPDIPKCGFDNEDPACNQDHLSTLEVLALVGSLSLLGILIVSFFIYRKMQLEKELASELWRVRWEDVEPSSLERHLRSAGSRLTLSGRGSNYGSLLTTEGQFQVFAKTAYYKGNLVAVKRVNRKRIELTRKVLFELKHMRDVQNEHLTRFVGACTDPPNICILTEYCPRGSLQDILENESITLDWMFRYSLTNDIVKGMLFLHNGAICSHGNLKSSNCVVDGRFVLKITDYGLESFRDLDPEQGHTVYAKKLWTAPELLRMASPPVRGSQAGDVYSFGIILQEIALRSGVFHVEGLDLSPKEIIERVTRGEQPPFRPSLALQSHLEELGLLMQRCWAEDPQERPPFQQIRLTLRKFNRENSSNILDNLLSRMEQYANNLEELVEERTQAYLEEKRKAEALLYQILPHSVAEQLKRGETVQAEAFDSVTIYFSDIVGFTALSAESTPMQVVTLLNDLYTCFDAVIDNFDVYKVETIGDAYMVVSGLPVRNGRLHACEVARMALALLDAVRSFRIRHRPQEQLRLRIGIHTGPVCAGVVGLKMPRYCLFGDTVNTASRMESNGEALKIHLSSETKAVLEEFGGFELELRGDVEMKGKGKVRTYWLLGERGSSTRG
Protocol: (§1) Before the measurement (24 hours in advance), 3×10^4 cells were seeded into white 96-well plates (PerkinElmer, Waltham, Mass.), coated with 0.1% poly(D-lysine), and assays conducted as recommended by the manufacturer (Promega). Medium was aspirated and cells were loaded for two hours at room temperature with 2% GoSensor™ reagent diluted in CO2-independent media (ThermoFisher) supplemented with 2 mM L-glutamine and 10% FBS (assay medium). Luminescence was measured on a BioTek Synergy™ NEO (Winooski, Vt.) plate reader at room temperature. After a baseline measurement of 3-5 minutes, assay medium as a control or assay medium with agonist was manually added, and luminescence was measured for 30 minutes at ˜ 1/60 Hz. For compounds tested for Npr1 and Npr2 inhibition, the compounds were added after baseline measurements, and luminescence was read for 5 minutes before addition of agonist. Luminescence was then normalized to baseline measurements and plotted against the time. Ligand-induced changes of cGMP production were quantified by determining the area under the curve. To determine efficacy and potency of agonists, ligand-induced changes were normalized to medium only addition and plotted against the ligand concentration. […] To quantify […] of compounds, compound-induced changes of agonist-induced cGMP production were normalized to vehicle controls, plotted against compound concentration, and fit with a four-parameter logistic regression. Effects of A-71915 on basal mNpr1 activity were fitted with a bell-shaped regression (equation indicated below).
Additional screens of the fifteen candidates corroborated hNpr1 inhibition. In particular, HEK-hNpr1-cGMP-sensor cells were seeded in 96-wells and stimulated with 60 pM hNppa 5 minutes after addition of candidate compounds or A-71915 and luminescence was measured for 30 minutes. Inhibitors were titrated to calculate apparent potency (IC50) and efficacy (Imax) of inhibition of hNppa-induced cGMP production.

[2] = biological target: T2, mNpr1 (Mus musculus, UniProt P18293); experiment: GloSensor assay, HEK-293 cells transiently expressing mNpr1 and pGS-40F; format: cell-based; details: no agonist
T2 construct: host or cells: HEK-293, transient co-transfection with pGS-40F
T2 sequence (P18293 29-1057): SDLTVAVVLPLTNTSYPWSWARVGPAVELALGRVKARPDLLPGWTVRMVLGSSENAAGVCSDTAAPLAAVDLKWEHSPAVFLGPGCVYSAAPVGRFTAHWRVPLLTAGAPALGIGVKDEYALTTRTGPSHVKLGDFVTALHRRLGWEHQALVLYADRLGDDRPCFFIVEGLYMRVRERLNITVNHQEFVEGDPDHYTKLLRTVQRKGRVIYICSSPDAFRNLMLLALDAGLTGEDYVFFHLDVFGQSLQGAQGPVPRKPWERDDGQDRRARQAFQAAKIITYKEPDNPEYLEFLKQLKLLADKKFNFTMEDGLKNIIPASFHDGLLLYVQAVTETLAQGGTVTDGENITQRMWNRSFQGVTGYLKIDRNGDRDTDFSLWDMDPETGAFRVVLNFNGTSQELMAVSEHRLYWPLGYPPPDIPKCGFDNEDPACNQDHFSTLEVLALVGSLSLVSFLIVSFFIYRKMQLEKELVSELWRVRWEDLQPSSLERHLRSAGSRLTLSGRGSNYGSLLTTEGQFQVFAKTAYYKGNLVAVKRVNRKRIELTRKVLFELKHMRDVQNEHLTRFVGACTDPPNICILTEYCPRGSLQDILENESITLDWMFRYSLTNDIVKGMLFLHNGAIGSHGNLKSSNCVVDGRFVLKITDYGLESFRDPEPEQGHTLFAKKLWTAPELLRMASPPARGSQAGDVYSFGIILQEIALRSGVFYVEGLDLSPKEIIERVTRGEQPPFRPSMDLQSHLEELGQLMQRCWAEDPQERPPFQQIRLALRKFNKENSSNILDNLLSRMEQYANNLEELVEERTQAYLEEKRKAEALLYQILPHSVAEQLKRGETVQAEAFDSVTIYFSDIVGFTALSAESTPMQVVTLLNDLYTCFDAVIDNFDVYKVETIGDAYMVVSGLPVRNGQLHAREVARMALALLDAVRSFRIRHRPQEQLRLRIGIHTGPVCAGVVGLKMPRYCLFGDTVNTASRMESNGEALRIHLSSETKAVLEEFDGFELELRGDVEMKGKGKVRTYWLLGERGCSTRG
Protocol: HEK-293 cells (American Type Culture Collection “ATTC,” Manassas, Va.) were cultured in DMEM/F12 supplemented with 2 mM L-glutamine, 10% FBS, 100 U/ml penicillin, and 100 μg/ml streptomycin. For transient expression, 8×10^5 cells were seeded in 6-wells, cultured for 24 hours, and then transfected using TransIT®-293 (Mirus, Madison, Wis.) according to the manufacturer's instructions. After transfection (48 hours), cells were used to measure intracellular cGMP production. HEK-293 cell clones stably expressing pGloSensor™-40F alone (HEK-cGMP-sensor cells) or in addition, human Npr1 (“hNpr1”) (HEK-hNpr1-cGMP-sensor cells) or human Npr2 (HEK-hNpr2-cGMP-sensor cells) were generated by co-transfection with pEAK8-GFP and selection with 1 μg/ml puromycin. Stable expression of transgenes was verified by measuring ligand-induced cGMP production with the cGMP biosensor.
as §1
Because the Npr1 receptor is a ligand-dependent guanylate cyclase, measuring agonist-induced changes in intracellular cGMP levels was used to examine inhibition of Npr1. To measure the production of cGMP by Npr1, a circular permutated Firefly luciferase molecule which was functionally linked to the cGMP binding domain of human PDE5 (GloSensor™ technology pGS-40F) was used, as described in Example 1. This reporter molecule together with a luciferase substrate (GoSensor™ reagent) and a sensitive method for detection of luciferase activity (emitted light) permitted real-time measurement of cGMP levels in live cells (FIG. 1A). The cGMP sensor was expressed in HEK293 cells and luciferase activity after stimulation with the NO-donor sodium nitroprusside (SNP), which activates ubiquitously expressed soluble guanylate cyclases, was examined. […] Next, mNpr1 and the cGMP sensor were transiently expressed in HEK293 cells and agonist dependent receptor activation was examined. […] Next, the effects of A-71915 on mNpr1 were tested.
For Table 6, HEK-293 cells transiently expressing mNpr1 and pGS-40F were stimulated with 1 nM mNppb 5 minutes after addition of candidate compounds or A-71915 and luminescence was measured for 30 minutes. Inhibitors were titrated to calculate apparent IC50 values, as described in methods.

[3] = test system: mice; details: reported; cited from earlier work

| Compound | Effect on hNppa concentration-response at fixed antagonist concentration [1] | Effect on basal mNpr1 activity in the absence of natriuretic peptides [2] | Block of acute itch responses elicited by intradermal pruritogens [3] |
| --- | --- | --- | --- |
| 1-cyclohexyl-3-(cyclopropylmethyl)-N-((3-methylisoxazol-5-yl)methyl)-2-oxo-2,3-dihydro-1H-benzo[d]imidazole-5-carboxamide [JS-11] | reduced maximal responses even at extremely high hNppa concentrations |  |  |
| CC[C@H](C)[C@@H]1NC(=O)[C@H](CCCNC(=N)N)NC(=O)CNC(=O)CNC(=O)[C@H](CC2CCCCC2)NC(=O)[C@@H](NC(=O)[C@@H](N)CCCNC(=N)N)CSSC[C@@H](C(N)=O)NC(=O)[C@H](CCCNC(=N)N)NC(=O)[C@H]2Cc3ccccc3CN2C(=O)[C@H]([C@@H](C)CC)NC(=O)[C@H](CCCNC(=N)N)NC(=O)[C@H](CC(=O)O)NC1=O [Compound A-71915, reference compound] (H-RC[Cha]GGRIDRI[dTic]RC-NH2; disulfide 2-13; N-terminus and C-terminus assumed) | right-shift in hNppA potency without any effect on maximal efficacy | partial agonist; also recorded: directly stimulates basal mNpr1 activity | does not block acute itch responses |
